{"source": "paper PMC9096233", "about": "“Identification of an Au(I) N-Heterocyclic Carbene Compound as a Bactericidal Agent Against Pseudomonas aeruginosa” (Frontiers in Chemistry, 2022)", "key": {"[1]": {"tested_on": "Burkholderia cepacia J2315", "experiment": "MIC by standard broth dilution", "type": "cell-based", "conditions": "Table S1", "protocol": "(§1) Pseudomonas aeruginosa strain PAO1 (P. aeruginosa) was grown in M9 minimal medium (1.0 g/L NH4Cl, 0.5 g/L NaCl, 6.0 g/L Na2HPO4, 3.0 g/L KH2PO4) supplemented with 1.0 mM MgSO4, 1.0 mM ZnSO4, 0.2 mM CaCl2, 0.4% (w/v) glucose and 0.2% (w/v) casein hydrolysate. Gram-negative Escherichia coli strain K-12 (E. coli) and Burkholderia cepacia J2315 (B. cepacia) were cultured in Luria-Bertani (LB) medium (5 g/L yeast extract, 10 g/L tryptone, 10 g/L sodium chloride). The Gram-positive Staphylococcus aureus strain Newman (S. aureus) was grown in Tryptic Soy Broth (TSB) medium (17 g/L Tryptone, 3 g/L Phytone, 5 g/L sodium chloride, 2.5 g/L dipotassium phosphate and glucose 2.5 g/L).\n(§2) The minimal inhibitory concentration (MIC) values of the gallium compounds were determined using a standard broth dilution method as described previously ([Wiegand et al., 2008]). In brief, the compounds were two-fold serially diluted to concentrations from 400 to 1.56 μM. Approximately 50 μL of the compound solution was added to a 96-well microtiter plate and mixed with 50 μL of bacteria culture in log phase (10^6 CFU/ml). The bacterial culture was further incubated at 37°C for 22–24 h. The OD600 values for each well was recorded on a microplate reader. The MICs value was defined as the lowest compound concentration that inhibited 95% of the bacterial growth."}, "[2]": {"tested_on": "Escherichia coli MG16552", "experiment": "MIC by standard broth dilution", "type": "cell-based", "conditions": "Table S1", "protocol": "as §1, §2"}, "[3]": {"tested_on": "Pseudomonas aeruginosa strain PAO1", "experiment": "MIC by standard broth dilution", "type": "cell-based", "conditions": "read-out: MIC", "protocol": "as §1, §2"}, "[4]": {"tested_on": "Staphylococcus aureus Newman", "experiment": "MIC by standard broth dilution", "type": "cell-based", "conditions": "Table S1", "protocol": "as §1, §2"}, "[5]": {"tested_on": "P. aeruginosa", "experiment": "Checkerboard assay with antibiotics", "type": "cell-based, Pseudomonas aeruginosa", "conditions": "with tobramycin and colistin", "source_text": "Figure S4. Heat plots of checkerboard assays for gold(I) compounds in combination with different antibiotics against P. aeruginosa."}, "[6]": {"tested_on": "P. aeruginosa biofilm", "experiment": "Biofilm inhibition, crystal violet", "type": "cell-based, Pseudomonas aeruginosa", "conditions": "48 h static incubation", "protocol": "P. aeruginosa was cultured in 24-well microtiter plate (Corning, NY, United States) for static biofilm formation. For biofilm inhibition assay, approximately 1 ml of bacterial overnight culture were diluted in fresh M9 medium with a final OD600 value of 0.33 and transferred into each well of microtiter plate in the absence or presence of sub-lethal concentration of Au1 or auranofin (2.5, 10, and 15 μM). After static incubation at 37°C for 48 h, weakly adherent planktonic cells were removed from the microtiter plate by washing with phosphate buffered saline (PBS) for three times gently. The adherent biofilms were dried and stained with 0.1% (w/v) crystal violet for 15 min. Excess dye was removed by rinsing the plate three times with PBS. Crystal violet was solubilized from the stained biofilms by adding 30% acetic acid and the biofilms were quantified by measuring the 595 nm absorbance. Each experiment was performed in triplicates."}, "[7]": {"tested_on": "P. aeruginosa", "experiment": "Time-course of bacterial membrane permeation, propidium iodide microplate", "type": "cell-based, Pseudomonas aeruginosa", "conditions": "50 μM; 37°C", "protocol": "Overnight P. aeruginosa culture was diluted 1:100 with fresh M9 medium and grown to early-mid exponential phase (OD600 = 0.4–0.6). The culture was then diluted 1:10 into PBS and treated with the 50 μM concentration of Au1 or auranofin for 30 min. Then the bacteria were incubated with propidium iodide (PI), a dye that is excluded from cells with impermeable membrane. The CytoFLEX flow cytometry (Beckman Coulter) was used to measure the bacterial fluorescent intensities and the data was analyzed using CytExpert 2.4 software. For the time-course detection of the bacterial permeability induced by Au1 or auranofin, P. aeruginosa in early-mid exponential phase (OD600 = 0.2) was incubated with PI dye on a 96-well plate. Au1 or auranofin was added to a final concentration of 50 μM. The fluorescence signal (561 nm excitation, 590 nm emission) and OD600 value were recorded on Cytation5 microplate reader. Each experiment was performed in triplicates."}, "[8]": {"tested_on": "P. aeruginosa PAO1", "experiment": "Mouse skin wound infection model", "type": "in vivo", "protocol": "Six-week-old female BALB/c mice were used for animal experiments to evaluate the healing effect of infected wounds in vivo. Briefly, mouse backs were cut to generate a circular wound (diameter 0.6 cm) with a hole punch and the wound was infiltrated using a medical cotton swab with P. aureginosa (overnight culture, OD600 = 0.3). The mice were randomly divided into three groups, including PBS, auranofin, and Au-1 groups (n = 5 in each group). The drugs were dissolved in DMSO and diluted with glycerol to a final concentration of 50 μM. After the bacterial fluid was dry, about 20 μL of the drug was added to the wound. Body weights and wound photography was recorded on days 0, 1, 3, 5, and 8. And on the 8th day, the mice were euthanized by chloral hydrate, the infectious tissues in all groups were collected and cultured into the LB plate for colony counting. The skin tissues were also fixed by paraformaldehyde solution (4%) for H&E, Gram, and Masson’s trichrome staining.\nThe above results promoted us to further investigate whether the Au1 compound was also efficacious in an in vivo animal infection model. To this end, we used a mouse wound infection model to assess the anti-P. aeruginosa efficacy of Au1 as described previously ([Liao et al., 2017b]). In brief, a circular wound with a diameter of 6 mm was created on the flank of mice, and approximately 5 × 10^8 CFU of P. aeruginosa PAO1 were dipped onto the wound by medical cotton swab to induce infection. Treatment is administered on the 1st day with auranofin or Au1 compound (50 μM, 20 μL) was applied to the wounds. The wound sizes and mice weights were recorded each day. On the 8th day, the infection sites were excised and part of the tissues was fixed in 4% paraformaldehyde and embedded in paraffin. Four-micrometer sections were cut, stained with Gram, H&E, and Masson’s trichrome stain. The remained tissues were homogenized and serially diluted for CFU quantification (Figure 6A)."}}, "note": "Where two headings read alike, the source gives them in different places."}
{"substance": "NHC^Me-Au-Cl [Au1]", "values": [{"measurement": "MIC", "setting": "[1]", "result": 25, "unit": "µM"}, {"measurement": "MIC", "setting": "[2]", "result": "<1.56", "unit": "µM"}, {"measurement": "MIC", "setting": "[3]; P. aeruginosa PAO1, lowest concentration inhibiting 95% of growth, 22–24 h, Table 1", "result": 25, "unit": "µM"}, {"measurement": "MIC", "setting": "[3]; Pseudomonas aeruginosa PAO1, Table S1", "result": 25, "unit": "µM"}, {"measurement": "MIC", "setting": "[4]", "result": "<1.56", "unit": "µM"}, {"measurement": "synergistic effects with antibiotics", "setting": "[5]", "result": "synergistic effects"}, {"measurement": "lowest concentration sufficient to inhibit biofilm formation", "setting": "[6]", "result": 2.5, "unit": "µM"}, {"measurement": "time to initiation of bacterial membrane rupture", "setting": "[7]", "result": 1.5, "unit": "h"}, {"measurement": "state of infected wound", "setting": "[8]; 50 μM, 20 μL on wound, 8th day", "result": "almost completely recovered"}, {"measurement": "toxicity to the mice (mice weights)", "setting": "[8]; 50 μM, 20 μL on wound, 8 days", "result": "no significant toxicity"}, {"measurement": "wound healing rate", "setting": "[8]; 50 μM, 20 μL on wound, vs auranofin-treated or control group", "result": "much faster"}, {"measurement": "bacteria in wound tissue (Gram staining)", "setting": "[8]; 8th day", "result": "no bacteria was observed"}, {"measurement": "reduction of live bacteria in the infection sites", "setting": "[8]; 8th day, CFU, compared to control group", "result": 90, "unit": "%"}]}
